Measured values as given in ChEMBL document CHEMBL6103672, “Discovery of HMPL-306 (Ranosidenib), a New Potent and Selective Dual Inhibitor of Mutant IDH1 and 2 in Clinical Development for Cancer Treatment” (ACS Med Chem Lett, 2025).

Assays:
[1] = Inhibition of IDH2 R140Q mutant in human TF-1 cells incubated for 72 hrs by measuring 2-HG production by fluorescence based analysis; format: functional, cell-based; conditions: TF-1, 72 h
[2] = Ratio of drug concentration in brain to plasma of BALB/c nude mouse xenografted with human U-87 MG cells harboring IDH2 R140Q mutant at 50 mg/kg measured after 24 hrs by LC/MS/MS analysis; format: ADME, organism-based; conditions: read-out: BPR
[3] = Volume of distribution at steady state in male ICR mouse at 2.5 mg/kg, iv measured after 8 hrs by LC/MS/MS analysis; format: ADME, organism-based; conditions: in vivo, read-out: Vdss
[4] = biological target: T1, UGT1A1 (Homo sapiens, UniProt P22309); assay: Inhibition of UGT1A1 (unknown origin) at 10 uM relative to control; format: ADME
T1 sequence (P22309 whole entry): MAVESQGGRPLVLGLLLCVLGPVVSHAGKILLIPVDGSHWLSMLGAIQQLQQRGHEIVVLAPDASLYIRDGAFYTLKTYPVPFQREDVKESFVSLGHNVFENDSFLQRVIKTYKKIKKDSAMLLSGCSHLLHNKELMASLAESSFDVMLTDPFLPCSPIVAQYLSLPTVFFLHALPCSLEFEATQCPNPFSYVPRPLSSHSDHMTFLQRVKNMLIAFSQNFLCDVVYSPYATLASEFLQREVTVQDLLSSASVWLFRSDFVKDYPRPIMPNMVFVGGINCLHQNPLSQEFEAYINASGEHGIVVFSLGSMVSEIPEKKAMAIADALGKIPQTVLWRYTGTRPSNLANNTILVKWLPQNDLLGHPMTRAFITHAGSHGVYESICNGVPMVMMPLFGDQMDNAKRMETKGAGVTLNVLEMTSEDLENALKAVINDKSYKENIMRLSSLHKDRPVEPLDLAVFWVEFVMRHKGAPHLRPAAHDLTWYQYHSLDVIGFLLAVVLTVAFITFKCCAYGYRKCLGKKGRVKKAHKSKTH

[5] = In vivo inhibition of 2-HG in BALB/c nude mouse xenografted with human U-87 MG cells harboring IDH2 R140Q mutant at 25 mg/kg, po measured after 16 hrs post dose; format: functional
[6] = Inhibition of IDH1 R132H mutant in human U-87 MG cells incubated for 72 hrs by measuring 2-HG production by fluorescence based analysis; format: functional, cell-based, U-87MG ATCC; conditions: Homo sapiens, U-87 MG, 72 h
[7] = AUC(0 to t) in male ICR mouse at 2.5 mg/kg, iv measured after 24 hrs by LC/MS/MS analysis; format: ADME, organism-based; conditions: in vivo
[8] = Inhibition of IDH1 R132C mutant in human HT-1080 cells incubated for 72 hrs by measuring 2-HG production by fluorescence based analysis; format: functional, cell-based; conditions: HT-1080, 72 h
[9] = biological target: T2, Adenosine receptor A3 (Homo sapiens, UniProt P0DMS8); assay: Inhibition of adenosine A3 receptor (unknown origin); format: toxicity
T2 sequence (P0DMS8 whole entry): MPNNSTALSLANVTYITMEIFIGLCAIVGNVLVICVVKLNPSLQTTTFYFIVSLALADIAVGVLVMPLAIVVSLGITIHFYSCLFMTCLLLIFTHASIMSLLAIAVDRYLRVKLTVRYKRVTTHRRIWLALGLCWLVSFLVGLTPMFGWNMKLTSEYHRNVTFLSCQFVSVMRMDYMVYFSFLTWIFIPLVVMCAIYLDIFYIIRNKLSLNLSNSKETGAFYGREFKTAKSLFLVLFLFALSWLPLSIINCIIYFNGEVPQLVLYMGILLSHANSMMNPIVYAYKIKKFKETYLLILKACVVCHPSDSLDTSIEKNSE

[10] = Half life in male Sprague-Dawley rat at 5 mg/kg, po measured after 24 hrs by LC/MS/MS analysis; format: ADME, organism-based; conditions: in vivo
[11] = Clearance in male ICR mouse at 2.5 mg/kg, iv measured after 8 hrs by LC/MS/MS analysis; format: ADME, organism-based; conditions: in vivo
[12] = Volume of distribution at steady state in male Sprague-Dawley rat at 1 mg/kg, iv measured after 24 hrs by LC/MS/MS analysis; format: ADME, organism-based; conditions: in vivo, read-out: Vdss
[13] = AUC(0 to infinity) in male ICR mouse at 10 mg/kg, po measured after 8 hrs by LC/MS/MS analysis; format: ADME, organism-based; conditions: in vivo
[14] = AUC(0 to infinity) in male Sprague-Dawley rat at 5 mg/kg, po measured after 24 hrs by LC/MS/MS analysis; format: ADME, organism-based; conditions: in vivo
[15] = AUC(0 to infinity) in male ICR mouse at 2.5 mg/kg, iv measured after 8 hrs by LC/MS/MS analysis; format: ADME, organism-based; conditions: in vivo
[16] = Inhibition of IDH2 R172K mutant in human HEK293 cells incubated for 72 hrs by measuring 2-HG production by fluorescence based analysis; format: functional, cell-based; conditions: HEK293, 72 h
[17] = Inhibition of IDH2 R140Q mutant in human U-87 MG cells incubated for 72 hrs by measuring 2-HG production by fluorescence based analysis; format: functional, cell-based, U-87MG ATCC; conditions: Homo sapiens, U-87 MG, 72 h
[18] = In vivo inhibition of 2-HG in BALB/c nude mouse xenografted with human U-87 MG cells harboring IDH2 R140Q mutant at 25 mg/kg, po measured after 24 hrs post dose; format: functional; conditions: Mus musculus, BALB/c, U-87 MG
[19] = AUC(0 to infinity) in male Sprague-Dawley rat at 1 mg/kg, iv measured after 24 hrs by LC/MS/MS analysis; format: ADME, organism-based; conditions: in vivo
[20] = Metabolic stability in male ICR mouse liver microsomes assessed as parent compound remaining at 1 uM measured after 30 mins in presence of NADPH by LC-MS analysis; format: ADME, Microsome; conditions: read-out: Stability
[21] = Ratio of drug concentration in brain to plasma of BALB/c nude mouse xenografted with human U-87 MG cells harboring IDH2 R140Q mutant at 50 mg/kg measured after 16 hrs by LC/MS/MS analysis; format: ADME, organism-based; conditions: read-out: BPR
[22] = Clearance in male Sprague-Dawley rat at 1 mg/kg, iv measured after 24 hrs by LC/MS/MS analysis; format: ADME, organism-based; conditions: in vivo
[23] = biological target: Voltage-gated inwardly rectifying potassium channel KCNH2 (Homo sapiens, UniProt Q12809); assay: Inhibition of hERG expressed in CHO cells by manual patch-clamp assay; format: toxicity, cell-based
Voltage-gated inwardly rectifying potassium channel KCNH2, sequence (Q12809 whole entry): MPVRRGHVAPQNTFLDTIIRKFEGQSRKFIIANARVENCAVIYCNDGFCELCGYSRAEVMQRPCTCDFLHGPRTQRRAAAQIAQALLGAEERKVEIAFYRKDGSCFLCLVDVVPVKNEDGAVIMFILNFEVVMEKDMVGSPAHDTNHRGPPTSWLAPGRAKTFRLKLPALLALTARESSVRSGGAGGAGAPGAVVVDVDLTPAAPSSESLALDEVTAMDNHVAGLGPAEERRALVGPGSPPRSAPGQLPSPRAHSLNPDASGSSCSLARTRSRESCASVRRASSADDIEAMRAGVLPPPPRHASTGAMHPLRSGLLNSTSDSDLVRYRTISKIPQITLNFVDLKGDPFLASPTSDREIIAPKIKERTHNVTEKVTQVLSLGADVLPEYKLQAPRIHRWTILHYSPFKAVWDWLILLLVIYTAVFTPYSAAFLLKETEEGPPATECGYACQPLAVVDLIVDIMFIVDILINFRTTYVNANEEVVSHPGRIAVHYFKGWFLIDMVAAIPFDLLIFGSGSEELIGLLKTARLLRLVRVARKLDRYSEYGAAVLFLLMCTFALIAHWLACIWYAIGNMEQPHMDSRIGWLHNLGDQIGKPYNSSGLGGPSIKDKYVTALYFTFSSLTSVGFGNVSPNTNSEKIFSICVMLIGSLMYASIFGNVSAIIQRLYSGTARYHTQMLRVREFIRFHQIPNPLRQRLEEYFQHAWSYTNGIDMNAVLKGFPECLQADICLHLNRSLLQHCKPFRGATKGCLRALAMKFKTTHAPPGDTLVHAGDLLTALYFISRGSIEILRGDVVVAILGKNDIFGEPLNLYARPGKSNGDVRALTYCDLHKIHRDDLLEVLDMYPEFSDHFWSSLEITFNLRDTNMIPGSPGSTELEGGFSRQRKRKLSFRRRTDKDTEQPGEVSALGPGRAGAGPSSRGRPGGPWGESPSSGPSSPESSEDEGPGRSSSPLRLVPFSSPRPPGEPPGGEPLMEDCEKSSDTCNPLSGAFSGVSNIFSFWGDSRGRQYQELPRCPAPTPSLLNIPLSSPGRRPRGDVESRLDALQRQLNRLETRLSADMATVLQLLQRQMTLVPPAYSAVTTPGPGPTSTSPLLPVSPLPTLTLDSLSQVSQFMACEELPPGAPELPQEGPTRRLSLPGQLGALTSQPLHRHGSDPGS

[24] = Oral bioavailability in male Sprague-Dawley rat at 5 mg/kg measured after 24 hrs by LC/MS/MS analysis; format: ADME, organism-based; conditions: in vivo
[25] = AUC(0 to t) in male Sprague-Dawley rat at 5 mg/kg, po measured after 144 hrs by LC/MS/MS analysis; format: ADME, organism-based; conditions: in vivo
[26] = Half life in male ICR mouse at 2.5 mg/kg, iv measured after 8 hrs by LC/MS/MS analysis; format: ADME, organism-based; conditions: in vivo
[27] = Apparent permeability across basolateral to apical side in human Caco-2 cells at 10 uM incubated for 1 hrs by LC-MS/MS analysis
[28] = Oral bioavailability in male ICR mouse at 10 mg/kg measured after 8 hrs by LC/MS/MS analysis; format: ADME, organism-based; conditions: in vivo
[29] = AUC(0 to t) in male ICR mouse at 10 mg/kg, po measured upto 24 hrs by LC/MS/MS analysis; format: ADME, organism-based; conditions: in vivo
[30] = AUC(0 to t) in male Sprague-Dawley rat at 1 mg/kg, iv measured after 144 hrs by LC/MS/MS analysis; format: ADME, organism-based; conditions: in vivo

`C[C@@H](Nc1nc(N[C@H](C)C(F)(F)F)nc(C2=C(F)[C@H](O)C(F)(F)CC2)n1)C(F)(F)F` [RANOSIDENIB] showed an IC50 [1] of 0.021 µM, a Kp at 24 h [2] of 2.9 and a Vd [3] of 2.57 L/kg. The inhibition at 10 µM [4] was 46.7%, the inhibition in vivo at 25 mg/kg [5] was 96% and the IC50 [6] was 0.05 µM. It also gave an AUC(0-t) at 24 h [7] of 10400 ng·h/mL, an IC50 [8] of 0.026 µM and an IC50 [9] of 8.5 µM. The half-life [10] was 50.4 h, the clearance [11] was 3.3 mL/min/kg and the Vd [12] was 3.67 L/kg. The AUC(0-inf) [13] was 62000 ng·h/mL, the AUC(0-inf) [14] was 112000 ng·h/mL and the AUC(0-inf) [15] was 12700 ng·h/mL. For the same compound, the IC50 [16] was 0.425 µM, the IC50 [17] was 0.031 µM and the inhibition in vivo at 25 mg/kg [18] was 98%. The AUC(0-inf) [19] was 19800 ng·h/mL, the remaining at 0.5 h, 1 µM [20] was 98.4% and the Kp at 16 h [21] was 2.8. It also gave a clearance [22] of 0.8 mL/min/kg, an IC50 [23] of over 30 µM and a bioavailability [24] of 113%. For the same compound, the AUC(0-t) at 144 h [25] was 96600 ng·h/mL, the half-life [26] was 10.6 h and the Papp B→A at 1 h, 10 µM [27] was 24 ×10⁻⁶ cm/s. For the same compound, the bioavailability [28] was 84.2%, the AUC(0-t) at 24 h [29] was 35000 ng·h/mL and the AUC(0-t) at 144 h [30] was 17100 ng·h/mL.
